Results published in patent publication US20200188477A1, “A MEDICAMENT FOR THE TREATMENT OF DISEASES BY BIOFILM FORMING MICROORGANISMS” (priority 2017, published 2020).

System: M. smegmatis over-expressing M. tuberculosis PpiB protein
Experiment: Biofilm formation assay (crystal violet)
Assay type: cell-based, Mycobacterium smegmatis
Settings: Ms_PpiB (Tet+), 7 days, absorbance 550 nm

Compound: C[C@H]1O[C@H](O[C@H]2[C@H](O)[C@@H](O)[C@@H](O[C@H]3[C@H](O)[C@@H](O)C(O)O[C@@H]3CO)O[C@@H]2CO)[C@H](O)[C@@H](O)[C@@H]1N[C@H]1C=C(CO)[C@@H](O)[C@H](O)[C@H]1O (stereo partly shown) [acarbose]
- concentration at which treatment significantly reduced biofilm formation: above 500 μg/ml
